Tests used:
[1] = tested on: turpentine oil-induced inflammation; set-up: method as in PMID 23504664; Leukocytes (L, leukocytes count):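 lower leukocyte count means stronger anti-inflammatory effect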; conditions: cited from earlier work; for Leukocytes (L, leukocytes count) / PMN (polymorphonuclear leukocytes, differential leucocyte count): mean ± SD
[2] = tested on: nitric oxide (NO) synthesis; set-up: method as in PMID 23504664; unit not given here; conditions: turpentine oil-induced inflammation, mean ± SD; cited from earlier work
[3] = tested on: phagocytes; set-up: method as in PMID 23504664; conditions: turpentine oil-induced inflammation, mean ± SD; cited from earlier work
[4] = tested on: oxidative stress; set-up: method as in PMID 23504664; conditions: turpentine oil-induced inflammation, mean ± SD; cited from earlier work
[5] = Lipophilicity by reversed-phase thin-layer chromatography (RP-TLC), isopropanol-water mobile phase; assay type: physicochemical; conditions: RP-18F254s TLC, iso-propanol-water 45-65% (v/v); for RM0 (lipophilicity estimation parameter, intercept of RM = RM0 + bC): extrapolated to pure water
Method: Some of the parameters resulting from a RP-TLC may be associated to the lipophilic character of the analytes. The retention parameters (RM) are calculated by means of well-known Batte-Smith and Westall Equation (1): RM = log (1/RF − 1) (1)
Generally, the RM values determined by RP-TLC are linearly dependent on the concentration of the organic modifier (C) in the mobile phase Equation (2): RM = RM0 + bC (2) where b and RM0 are, respectively, the slope and the intercept of Equation (2). […] Additionally, it has been stated that not only the RM0, but also the slope, b, as a characteristic of the specific hydrophobic surface area of the compounds, can be used as an estimation of lipophilicity. The advantages of TLC methods consist in the small quantity of compounds needed for the determination, and the rapidity and simplicity of the method. Also, they are inexpensive, rapid and easy to perform.
Chromatography was performed on 20 × 20 cm RP-18F254s TLC precoated silica plates (Merck; Darmstadt, Germany). Solutions (1 mg/mL) of the tested compounds were prepared in iso-propanol, and 3 μL aliquots were spotted in duplicate on the plates by hand, 10 mm from the bottom edge and 20 mm apart. The mobile phases were composed of the iso-propanol-water binary mixtures, with a varying content of organic modifier between 45% and 65% (v/v) in 5% increments, as the study compounds differed considerably in their retention. Chromatography was performed in a normal developing chamber at room temperature, the developing distance being 10 cm. The chromatography chamber was saturated with the mobile phase for 30 min before use. After the development (30–60 min), the plates were air dried at room temperature and examined under a UV lamp (λ = 254 nm), and the RF (retardation factor) values were measured manually by a digital caliper. The experiments were performed in triplicate.

Structure (SMILES)	b (slope of RM = RM0 + bC, specific hydrophobic surface area) [5]	RM0 (lipophilicity estimation parameter, intercept of RM = RM0 + bC) [5]	Leukocytes (L, leukocytes count) [1]	PMN (polymorphonuclear leukocytes, differential leucocyte count) [1]	NO (nitric oxide synthesis) [2]	PA (phagocytic activity) [3]	PI (phagocytosis index) [3]	OSI (oxidative stress index) [4]	TAR (total antioxidant response) [4]	TOS (total oxidative status) [4]	anti-inflammatory and antioxidant effects (in words) ([1]; overall ranking within the series)
C=CCn1c(S)nnc1-c1sc(-c2ccc(Br)cc2)nc1C [Th-17]	−4.737	2.808	10,147.5 ± 528	75.4 ± 5.2%	60.479 ± 11.8	19.5 ± 0.9	15 ± 3.5%	6.38 ± 5.2	1.093 ± 0.003	69.962 ± 5.2	–
Cc1nc(-c2ccccc2)sc1-c1nnc(S)o1 [Th-18]	−1.840	0.540	4575 ± 805	63.7 ± 2.4%	43.23 ± 3.9	56 ± 8.6	17 ± 1.9%	6.98 ± 4.1	1.118 ± 0.006	78.089 ± 14.1	–
Cc1nc(-c2ccc(Br)cc2)sc1-c1nnc(S)o1 [Th-20]	−1.283	0.393	4837.5 ± 1305	59.2 ± 5.6%	43.288 ± 5.0	20 ± 1.5	16 ± 3.0%	7.32 ± 3.2	1.106 ± 0.003	81.022 ± 13.2	–

Continued, in another order:

b (slope of RM = RM0 + bC, specific hydrophobic surface area) [5]	RM0 (lipophilicity estimation parameter, intercept of RM = RM0 + bC) [5]	Structure (SMILES)	Leukocytes (L, leukocytes count) [1]	PMN (polymorphonuclear leukocytes, differential leucocyte count) [1]	NO (nitric oxide synthesis) [2]	PA (phagocytic activity) [3]	PI (phagocytosis index) [3]	OSI (oxidative stress index) [4]	TAR (total antioxidant response) [4]	TOS (total oxidative status) [4]	anti-inflammatory and antioxidant effects (in words) ([1]; overall ranking within the series)
−2.962	1.783	C=CCn1c(S)nnc1-c1sc(-c2ccc(C)cc2)nc1C [Th-16]	9225 ± 333	77.4 ± 1.9%	63.091 ± 5.1	27 ± 1.1	21.2 ± 1.0%	6.04 ± 4.1	1.103 ± 0.009	66.681 ± 9.1	–
−1.134	0.286	Cc1ccc(-c2nc(C)c(-c3nnc(S)o3)s2)cc1 [Th-19]	7443.75 ± 1172	72.8 ± 5.0%	45.198 ± 2.2	13.5 ± 2.78	20 ± 1.5%	7.13 ± 5.9	1.119 ± 0.009	79.849 ± 12	–
−1.286	0.620	Cc1nc(-c2ccccc2)sc1-c1nnc(S)s1 [Th-21]	3000 ± 241	52.6 ± 2.1%	43.737 ± 6.2	23 ± 1.9	14.5 ± 4.6%	6.03 ± 4.5	1.114 ± 0.007	67.137 ± 10.6	best anti-inflammatory and antioxidant effects
−1.227	0.701	Cc1ccc(-c2nc(C)c(-c3nnc(S)s3)s2)cc1 [Th-22]	5812.5 ± 399	66.4 ± 0.8%	52.08 ± 8.1	23.5 ± 0.9	35 ± 8.2%	5.13 ± 4.9	1.105 ± 0.001	56.694 ± 7.9	–

Reference: article PMC6332165, “Study of the Relationships between the Structure, Lipophilicity and Biological Activity of Some Thiazolyl-carbonyl-thiosemicarbazides and Thiazolyl-azoles” (Molecules, 2015)
